Test results published in patent US9309243B2, “Imidazopyridine derivatives as modulators of TNF activity” (UCB Biopharma SPRL, priority 2012, dated 2016).

A melting point of 143 to 144 °C was found for Cc1nc2cc(F)c(-c3cnc(C4(O)COC4)nc3)cn2c1Cc1ccccc1OC(F)F [Example 322, 3-[5-(3-{[2-(Difluoromethoxy)phenyl]methyl}-7-fluoro-2-methylimidazo[1,2-a]pyridin-6-yl)pyrimidin-2-yl]oxetan-3-ol] in this work.
